PMC9307983 (Acta Naturae, 2022)
Where two headings read alike, the source gives them in different places. Marks after values point to notes of the source that are not given here.

Columns and labels:
MGL, Ser339Ala [1] = target: T1, MGL, Ser339Ala (Citrobacter freundii, UniProt Q84AR1, S339A); assay: biochemical; type: biochemical; settings: for Ki: Ser339Ala MGL, γ-elimination of L-methionine, 30°C, pH 8.0, read-out: K I (inhibition constant); for type of inhibition of the physiological reaction: mutant enzyme (Ser339Ala MGL)
Experimental: (§1) The kinetic parameters of the γ- and β-elimination reactions were determined at 30°C in the conjugate reaction with HOHxoDH or LDH based on a decrease in NADH absorbance at 340 nm (Δε = 6,220 M^–1cm^–1). The reaction mixtures contained a 100-mM potassium phosphate buffer, pH 8.0, 0.1 mM PLP, 1 mM DTT, 0.2 mM NADH, 70 μg HOHxoDH or 10 U LDH, and variable amounts of the substrate in a total volume of 1 mL. The reaction was initiated by the addition of 10 μg of the enzyme.
(§2) The kinetic parameters were calculated according to the Michaelis–Menten equation using the EnzFitter software. In the calculations, an enzyme subunit molecular weight of 43 kDa was used. The inhibition constants were also determined using the EnzFitter software.

MGL, wild type [2] = target: MGL, wild type; parameters: method as in PMID 21166645; settings: cited from earlier work; for Ki: wild type MGL, γ-elimination of L-methionine, read-out: K I (inhibition constant); for type of inhibition of the physiological reaction: wild-type enzyme
MGL, Ser339Ala [3] = target: T1, MGL, Ser339Ala; type: biochemical; settings: for kex, α-H (exchange rate of C-α-proton) / kex, β-H (exchange rate of C-β-protons): Ser339Ala MGL, D2O, pD 7.6, 30°C, L-alanine 144.23 mM, L-norleucine 98.04 mM; for Number of exchanged C-α-protons / Number of exchanged C-β-protons: common to wild type and Ser339Ala MGL
Experimental: The kinetics of isotope exchange reactions of the C-α- and C-β-protons for deuteron in inhibitors, catalyzed by the mutant form, was detected using 1H NMR spectroscopy. The reaction was conducted in D2O containing 50 mM potassium phosphate (pD = 7.6), 0.1 mM PLP, and an inhibitor in a total volume of 0.5 mL at 30°C at L-alanine and L-norleucine concentrations of 144.23 mM and 98.04 mM, respectively. The reaction was initiated by adding 0.3–0.7 mg of the enzyme. 1H NMR spectra were recorded at fixed time intervals on a Bruker AMXIII-400 spectrometer at an operating frequency of 400 MHz. The signals of the C-α- and C-β-protons were integrated using the modified Enzkin computer program, which is a part of the XWIN-NMR programs. The kinetic curves of the yields of deuterated products were processed according to the method described in [39]. […]

MGL, wild type [4] = settings: cited from earlier work
MGL, wild type [5] = settings: cited from earlier work; remark: listed apart in the source
MGL, Ser339Ala [6] = target: T1, MGL, Ser339Ala; type: biochemical; settings: for Km / kcat: Ser339Ala MGL, 30°C, pH 8.0, coupled with HOHxoDH or LDH; for specific activity: Ser339Ala MGL samples of 95% purity, 30 mM substrate, pH 8.0
Experimental: The homogeneity of samples was examined by PAGE electrophoresis under denaturing conditions. During purification, activity was determined in the β-elimination reaction; activity of the final sample was determined in β- and γ-elimination reactions. […] The amount of enzyme that catalyzes the formation of […] of keto acid was defined as the unit of enzymatic activity.
as §1, §2

wild-type MGL = settings: read-out: dissociation constant of the PLP complex; cited from earlier work
[7] = wild type MGL, substrate of elimination reaction

Molecule	type of inhibition of the physiological reaction (MGL, Ser339Ala [1])	Ki (MGL, wild type [2]) [mM]	type of inhibition of the physiological reaction (MGL, wild type [2])	Km (MGL, wild type [5]; [7]) [µM]	kcat (MGL, wild type [5]; [7])	Km (MGL, Ser339Ala [6]) [µM]	kcat (MGL, Ser339Ala [6]) [s^–1]	also measured
CC[C@H](N)C(=O)O [L-α-Abu, L-α-aminobutyric acid]	competitive inhibitors	8.01 ± 0.76	competitive inhibitors					Ki (MGL, Ser339Ala [1]): 4.66 ± 0.51 mM
C[C@H](N)C(=O)O [L-Ala, L-alanine]	competitive inhibitors	3.41 ± 0.4	competitive inhibitors					kex, α-H (exchange rate of C-α-proton) (MGL, Ser339Ala [3]): 0.387 s⁻¹; kex, β-H (exchange rate of C-β-protons) (MGL, Ser339Ala [3]): 0.116 s⁻¹; Number of exchanged C-α-protons (MGL, Ser339Ala [3]): 1; Number of exchanged C-β-protons (MGL, Ser339Ala [3]): 3; kex, α-H (exchange rate of C-α-proton) (MGL, wild type [4]; wild type MGL): 2.71* s^-1; kex, β-H (exchange rate of C-β-protons) (MGL, wild type [4]; wild type MGL): 2.63* s^-1
S-methyl-L-cysteine [S-Met-L-Cys]				710 ± 110	4.6 ± 0.29* s^–1	21800 ± 2250	0.41 ± 0.018	
CC(=O)OC[C@H](N)C(=O)O [O-Ac-L-Ser]				4280 ± 330	2.13 ± 0.037*** s^–1	16400 ± 1090	0.047 ± 0.001	
CCCC[C@H](N)C(=O)O [L-Nle, L-norleucine]	competitive inhibitors	0.6 ± 0.06	competitive inhibitors					kex, α-H (exchange rate of C-α-proton) (MGL, Ser339Ala [3]): 0.46 s⁻¹; kex, β-H (exchange rate of C-β-protons) (MGL, Ser339Ala [3]): 0.12 s⁻¹; Number of exchanged C-α-protons (MGL, Ser339Ala [3]): 1; Number of exchanged C-β-protons (MGL, Ser339Ala [3]): 2; Ki (MGL, Ser339Ala [1]): 0.89 ± 0.09 mM; kex, α-H (exchange rate of C-α-proton) (MGL, wild type [4]; wild type MGL): 41.8* s^-1; kex, β-H (exchange rate of C-β-protons) (MGL, wild type [4]; wild type MGL): 4.74* s^-1
NCC(=O)O [Gly, glycine]	competitive inhibitors	48.5 ± 4.37	competitive inhibitors					kex, α-H (exchange rate of C-α-proton) (MGL, Ser339Ala [3]): 0.078 s⁻¹; exchange of the pro-(S) proton (MGL, Ser339Ala [3]; mutant form, long incubation in D2O (led to inactivation of the enzyme)): unable to detect any exchange; Ki (MGL, Ser339Ala [1]): 22.9 ± 2.84 mM; kex, α-H (exchange rate of C-α-proton) (MGL, wild type [4]): 20.2* s^-1
CSCC[C@H](N)C(=O)O [L-Met, L-methionine]				700 ± 110	6.2 ± 0.42* s^–1			specific activity (MGL, Ser339Ala [6]): 0.31 U/mg
CCSCC[C@H](N)C(=O)O [S-Et-L-Hcy]				540 ± 10	6.78 ± 0.02* s^–1	540 ± 37	0.16 ± 0.0016	
S-benzyl-L-cysteine [S-Bzl-L-Cys]					8.16 ± 0.23* s^–1	5760 ± 590	1.81 ± 0.094	Km (MGL, wild type [5]): 180 ± 20 µM
S-ethyl-L-cysteine [S-Et-L-Cys]					5.03 ± 0.16* s^–1	6470 ± 540	0.67 ± 0.024	Km (MGL, wild type [5]): 170 ± 20 µM; specific activity (MGL, Ser339Ala [6]): 1.03 U/mg
CCC[C@H](N)C(=O)O [L-Nva, L-norvaline]	competitive inhibitors	4.6 ± 0.43	competitive inhibitors					Ki (MGL, Ser339Ala [1]): 1.7 ± 0.32 mM
CC(=O)OCC[C@H](N)C(=O)O [O-Ac-L-Hse, O-acetyl-L-homoserine]				2910 ± 180	2.1 ± 0.053** s^–1	2070 ± 220	0.77 ± 0.011	
NC(CCS)C(=O)O (racemic) [DL-Hcy]				970 ± 150	8.51 ± 0.41* s^–1	3390 ± 340	0.28 ± 0.009	
Cc1ncc(COP(=O)(O)O)c(C=O)c1O [PLP, pyridoxal 5’-phosphate]								Kd (wild-type MGL): 0.000624 mM
